Data: patent EP0100673A2, “A method of enhancing neurofiber regrowth” (THE RESEARCH FOUNDATION OF STATE UNIVERSITY OF NEW YORK, priority 1982, dated 1984)

Tests used:
Assay type in all cases: in vivo, rat
sciatic nerve [1] = test: Counts of myelinated axons 5.0 mm distal to repair by light microscopy; details: for Counts of Myelinated Axons - 5.0 mm Distal to Repair by Light Microscopy 1.0 X 10^5 µm^2 - of Area: 12 mg/kg in 5% DMSO, bath + i.m. twice weekly; for % Difference Treated vs. Control: myelinated axons distal, light microscopy
Description: (§1) lwenty raty art anenthetizve with sel rompun (0.5 cc total volume). The right sciatic nerve is exposed and severed with microneuroscissors, and subsequently repaired microsurgically with 6-8 circumferential microsutures using 10-0 nylon. Immediately following surgery the treated animals receive 12 mg/kg Ac leupeptin in 5% DMSO (dimethylsulphoxide) as a bath on their sciatic nerve, 0.25 cc. total volume. Then the treated animals are injected intramuscularly in right hindlimb with 0.25 cc of a solution containing 12 mg/kg Ac leupeptin in 5% DMSO. Control animals receive the same surgical treatment, but the bath and intramuscular injection consist only of the solvent and 5% DMSO.
(§2) Thereafter, treated animals are injected twice weekly in the operated hindlimb with 12 mg/kg Ac leupeptin in 5% DMSO (0.25 cc total volume) for periods of 1 week, 1 month, two months, three months - and six months. Control animals are injected with 0.25 cc of 5% DMSO twice weekly in the operated hindlimb for the same time period.
(§3) Two treated and two control animals are assigned to each of the stated time periods.
(§4) A ten mm. portion of the repaired sciatic nerve is excised from each animal. This is fixed in 3.0% glutaraldehyde in 0.1 M sodium cacodylate, pH 7.3, overnight for electron microscopy. After post-fixation in 1.0% osmium tetroxide, ethanol dehydration and embedding in Polybed 812, both thick (1 micron) and thin (500 A°) transverse sections are cut on a ultramicrotome. Portions of the excised muscles receive similar preparation for electron microscopy.
(§5) Thick sections of the sciatic nerve are placed on microscope slots stained with toluidine blue and photographed at a constant magnification in the light microscope. Thin sections of both nerve and muscles are placed on 300 mesh copper grid calm, stained with uranyl acetate and lead citrate and photographed using a Hitachi HU-12 electron microscope.

[2] = test system: muscles of the operated hindlimb; test: Wet weight of hindlimb muscles after sciatic nerve severing and microsurgical repair; details: for Average Wet Weight (g) of Muscles: 12 mg/kg in 5% DMSO, bath + i.m. twice weekly; for % Weight (+)gain or (-)loss Treated vs. Control / % Weight (+) gain (-) loss Treated vs. control / % Weight (+)gain or (-)loss: muscle wet weight; for % Weight (+) gain (-) loss Treated vs. control: One Week; for % Weight (+)gain or (-)loss: Three Month, treated vs. control
Description: as §1, §2, §3
All animals are sacrified by an overdose of pentobarbital, 1.0 cc total volume. The gastro- cnemius, soleus and extensor digitorum longus muscles of the operated hindlimb are execised from origin to insertion, weighed and then frozen in isopentane in liquid nitrogen […]. For light microscopy, cryostat sections are cut, placed on slides and stained with hematoxylin and eosin and/or ATPase histochemistry at pH's of 4.3 and 10.4. Myofiber diameters are determined by photographing hematoxylin and eosin sections at a constant magnification in the light microscope.

sciatic nerve [3] = test: Counts of myelinated and unmyelinated axons 5.0 mm distal to repair by electron microscopy; details: 5.0mm. Distal to Repair, Electron Microscopy, 12 mg/kg in 5% DMSO, bath + i.m. twice weekly
Description: as §1, §2, §3, §4, §5

CC(=O)N[C@@H](CC(C)C)C(=O)N[C@@H](CC(C)C)C(=O)N[C@H](C=O)CCCNC(=N)N [Ac leupeptin, acetyl-L-leu-L-leu-L-argininal]
Counts of Myelinated Axons - 5.0 mm Distal to Repair by Light Microscopy 1.0 X 10^5 µm^2 - of Area (sciatic nerve [1]; One Month Treated): 1467 1.0 X 10^5 µm^2 - of Area | Counts of Myelinated Axons - 5.0 mm Distal to Repair by Light Microscopy 1.0 X 10^5 µm^2 - of Area (sciatic nerve [1]; One Week Treated): 722 1.0 X 10^5 µm^2 - of Area | Counts of Myelinated Axons - 5.0 mm Distal to Repair by Light Microscopy 1.0 X 10^5 µm^2 - of Area (sciatic nerve [1]; Six Month Treated): 1620 1.0 X 10^5 µm^2 - of Area | Counts of Myelinated Axons - 5.0 mm Distal to Repair by Light Microscopy 1.0 X 10^5 µm^2 - of Area (sciatic nerve [1]; Three Month Treated): 2808 1.0 X 10^5 µm^2 - of Area | Counts of Myelinated Axons - 5.0 mm Distal to Repair by Light Microscopy 1.0 X 10^5 µm^2 - of Area (sciatic nerve [1]; Two Month Treated): 1625 1.0 X 10^5 µm^2 - of Area | % Difference Treated vs. Control (sciatic nerve [1]; One Month): +2% | % Difference Treated vs. Control (sciatic nerve [1]; One Week): +1% | % Difference Treated vs. Control (sciatic nerve [1]; Six Month): 0% | % Difference Treated vs. Control (sciatic nerve [1]; Three Month): +1% | % Difference Treated vs. Control (sciatic nerve [1]; Two Month): +12% | Average Wet Weight (g) of Muscles ([2]; One Month Treated, E.D.L.): 0.198 g | Average Wet Weight (g) of Muscles ([2]; One Month Treated, GASTROCNEMIUS): .954 g | Average Wet Weight (g) of Muscles ([2]; One Month Treated, SOLEUS): .379 g | Average Wet Weight (g) of Muscles ([2]; One Week Treated, E.D.L.): 0.116 g | Average Wet Weight (g) of Muscles ([2]; One Week Treated, GASTROCNEMIUS): 2.379 g | Average Wet Weight (g) of Muscles ([2]; One Week Treated, SOLEUS): 0.335 g | Average Wet Weight (g) of Muscles ([2]; Six Month Treated, E.D.L.): 0.163 g | Average Wet Weight (g) of Muscles ([2]; Six Month Treated, GASTROCNEMIUS): 1.577 g | Average Wet Weight (g) of Muscles ([2]; Six Month Treated, SOLEUS): 0.306 g | Average Wet Weight (g) of Muscles ([2]; Three Month Treated, E.D.L.): 0.178 g | Average Wet Weight (g) of Muscles ([2]; Three Month Treated, GASTROCNEMIUS): 1.563 g | Average Wet Weight (g) of Muscles ([2]; Three Month Treated, SOLEUS): 0.248 g | Average Wet Weight (g) of Muscles ([2]; Two Months Treated, E.D.L.): 0.202 g | Average Wet Weight (g) of Muscles ([2]; Two Months Treated, GASTROCNEMIUS): 1.371 g | Average Wet Weight (g) of Muscles ([2]; Two Months Treated, SOLEUS): 0.425 g | average wet weight in grams in treated muscles ([2]; all time periods and muscles, vs. control): significantly greater than control | % Weight (+)gain or (-)loss Treated vs. Control ([2]; One Month, E.D.L.): +62% | % Weight (+)gain or (-)loss Treated vs. Control ([2]; One Month, GASTROCNEMIUS): +30% | % Weight (+)gain or (-)loss Treated vs. Control ([2]; One Month, SOLEUS): +19% | % Weight (+) gain (-) loss Treated vs. control ([2]; E.D.L.): +18% | % Weight (+) gain (-) loss Treated vs. control ([2]; GASTROCNEMIUS): +37% | % Weight (+) gain (-) loss Treated vs. control ([2]; SOLEUS): +13% | % Weight (+)gain or (-)loss Treated vs. Control ([2]; Six Month, E.D.L.): +18% | % Weight (+)gain or (-)loss Treated vs. Control ([2]; Six Month, GASTROCNEMIUS): +15% | % Weight (+)gain or (-)loss Treated vs. Control ([2]; Six Month, SOLEUS): +23% | % Weight (+)gain or (-)loss ([2]; E.D.L.): +13% | % Weight (+)gain or (-)loss ([2]; GASTROCNEMIUS): +18% | % Weight (+)gain or (-)loss ([2]; SOLEUS): +9% | % Weight (+)gain or (-)loss Treated vs. Control ([2]; Two Months, E.D.L.): +43% | % Weight (+)gain or (-)loss Treated vs. Control ([2]; Two Months, GASTROCNEMIUS): +14% | % Weight (+)gain or (-)loss Treated vs. Control ([2]; Two Months, SOLEUS): +9% | #Myelinated Axons (sciatic nerve [3]; One month treated): 1.2 Per 200 μm^2 of Area | #Unmyelinated Axons (sciatic nerve [3]; One month treated): 8 Per 200 μm^2 of Area | #Myelinated Axons (sciatic nerve [3]; One week treated): 4.25 Per 200 μm^2 of Area | #Unmyelinated Axons (sciatic nerve [3]; One week treated): 11.0 Per 200 μm^2 of Area | #Myelinated Axons (sciatic nerve [3]; Six Month Treated): 5 Per 200 μm^2 of Area | #Unmyelinated Axons (sciatic nerve [3]; Six Month Treated): 8.7 Per 200 μm^2 of Area | #Myelinated Axons (sciatic nerve [3]; Three month treated): 9.0 Per 200 μm^2 of Area | #Unmyelinated Axons (sciatic nerve [3]; Three month treated): 12.9 Per 200 μm^2 of Area | #Myelinated Axons (sciatic nerve [3]; Two Month Treated): 6 Per 200 μm^2 of Area | #Unmyelinated Axons (sciatic nerve [3]; Two Month Treated): 18 Per 200 μm^2 of Area
